“And” between values parts separate entries of the source, which are not always exact repeats. Equal entries are not always repeated. Toxic doses and inconclusive results are not listed. Rule as the data show it: active = T/C of 150% or more; inactive = T/C below 125%.
Tested on: L1210 leukemia ip in BDF1 mice, survival T/C
Test: NCI In Vivo Anticancer Drug Screen. Data for tumor model L1210 Leukemia (intraperitoneal) in B6D2F1 (BDF1) mice
Conditions: endpoint: mean survival time, higher = longer survival
Procedure, shortened: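 Mice bearing the transplanted tumor received compound or vehicle. Survival of the treated group was divided by that of the vehicle-treated control group to give the ratio.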

[1] = dose: 100.0 mg/kg/injection, schedule: Q04DX003 (ip), vehicle: saline with Tween-80
[2] = dose: 200.0 mg/kg/injection, schedule: Q04DX003 (ip), vehicle: saline with Tween-80
[3] = dose: 400.0 mg/kg/injection, schedule: Q04DX003 (ip), vehicle: saline with Tween-80
[4] = dose: 100.0 mg/kg/injection, schedule: Q01DX001 (ip), vehicle: carboxymethylcellulose (CMC)
[5] = dose: 100.0 mg/kg/injection, schedule: Q04DX003 (ip), vehicle: carboxymethylcellulose (CMC)
[6] = dose: 200.0 mg/kg/injection, schedule: Q01DX001 (ip), vehicle: carboxymethylcellulose (CMC)
[7] = dose: 200.0 mg/kg/injection, schedule: Q04DX003 (ip), vehicle: carboxymethylcellulose (CMC)
[8] = dose: 100.0 mg/kg/injection, schedule: Q04DX003 (ip), vehicle: saline
[9] = dose: 200.0 mg/kg/injection, schedule: Q04DX003 (ip), vehicle: saline
[10] = dose: 400.0 mg/kg/injection, schedule: Q04DX003 (ip), vehicle: saline

Measured: T/C

NC(=S)c1ccc(S(=O)(=O)Nc2cccc(Br)c2)cc1
inactive: [1] 103 % of control | [2] 103 % of control | [3] 97 % of control

CC(C)NCCOC(=O)c1ccc(N)cc1
inactive: dose: 75.0 mg/kg/injection, schedule: Q01DX001 (ip), vehicle: saline 102 % of control | dose: 150.0 mg/kg/injection, schedule: Q01DX001 (ip), vehicle: saline 105 % of control

O=C(Nc1ccc(F)cc1)Nc1cccc(O)c1
inactive: dose: 50.0 mg/kg/injection, schedule: Q01DX001 (ip), vehicle: carboxymethylcellulose (CMC) 106 % of control | dose: 50.0 mg/kg/injection, schedule: Q04DX002 (ip), vehicle: carboxymethylcellulose (CMC) 97 % of control and 98 % of control | dose: 50.0 mg/kg/injection, schedule: Q04DX003 (ip), vehicle: carboxymethylcellulose (CMC) 101 % of control | [4] 103 % of control | dose: 100.0 mg/kg/injection, schedule: Q01DX009 (ip), vehicle: carboxymethylcellulose (CMC) 92 % of control and 101 % of control | dose: 100.0 mg/kg/injection, schedule: Q04DX002 (ip), vehicle: carboxymethylcellulose (CMC) 94 % of control and 95 % of control and 98 % of control | [5] 102 % of control | [6] 96 % of control | dose: 200.0 mg/kg/injection, schedule: Q01DX009 (ip), vehicle: carboxymethylcellulose (CMC) 98 % of control | dose: 200.0 mg/kg/injection, schedule: Q04DX002 (ip), vehicle: carboxymethylcellulose (CMC) 95 % of control and 101 % of control and 90 % of control | [7] 98 % of control | dose: 400.0 mg/kg/injection, schedule: Q01DX009 (ip), vehicle: carboxymethylcellulose (CMC) 98 % of control and 103 % of control

CN/N=C/c1ccccc1
inactive: dose: 12.5 mg/kg/injection, schedule: Q01DX009 (ip), vehicle: saline with Tween-80 102 % of control | dose: 25.0 mg/kg/injection, schedule: Q01DX009 (ip), vehicle: saline with Tween-80 107 % of control | dose: 50.0 mg/kg/injection, schedule: Q01DX009 (ip), vehicle: saline with Tween-80 97 % of control and 112 % of control | dose: 100.0 mg/kg/injection, schedule: Q04DX002 (ip), vehicle: saline with Tween-80 95 % of control | dose: 200.0 mg/kg/injection, schedule: Q04DX002 (ip), vehicle: saline with Tween-80 92 % of control

CCSCN1CCN(CSCC)C(C)C1 (centres undefined)
inactive: dose: 100.0 mg/kg/injection, schedule: Q01DX001 (ip), vehicle: saline 104 % of control | dose: 200.0 mg/kg/injection, schedule: Q01DX001 (ip), vehicle: saline 106 % of control | dose: 400.0 mg/kg/injection, schedule: Q01DX001 (ip), vehicle: saline 112 % of control

Clc1ccc(/C=C2\c3ccccc3-c3nc4ccccc4nc32)cc1
inactive: dose: 75.0 mg/kg/injection, schedule: Q04DX003 (ip), vehicle: saline 91 % of control | dose: 150.0 mg/kg/injection, schedule: Q04DX003 (ip), vehicle: saline 88 % of control

S=c1[nH]nc(NC2CCCCC2)s1
inactive: dose: 100.0 mg/kg/injection, schedule: Q01DX009 (ip), vehicle: other 91 % of control | [8] 88 % of control | [9] 91 % of control | [10] 86 % of control

CC(=O)Oc1ccc(NC(=O)c2ccccc2)c2ccccc12
inactive: [4] 110 % of control | [6] 100 % of control | dose: 400.0 mg/kg/injection, schedule: Q01DX001 (ip), vehicle: carboxymethylcellulose (CMC) 94 % of control

O=C(O)/C(=C\c1ccccc1)Sc1ccccc1
inactive: dose: 75.0 mg/kg/injection, schedule: Q01DX001 (ip), vehicle: acetone 105 % of control | dose: 150.0 mg/kg/injection, schedule: Q01DX001 (ip), vehicle: acetone 98 % of control | dose: 300.0 mg/kg/injection, schedule: Q01DX001 (ip), vehicle: acetone 100 % of control

CC1CCN(C(=O)Nc2ccc(Cl)cc2[N+](=O)[O-])CC1
inactive: dose: 100.0 mg/kg/injection, schedule: Q01DX009 (ip), vehicle: Klucel (hydroxypropylcellulose) (HPC) 92 % of control | dose: 200.0 mg/kg/injection, schedule: Q01DX009 (ip), vehicle: Klucel (hydroxypropylcellulose) (HPC) 97 % of control | dose: 400.0 mg/kg/injection, schedule: Q01DX009 (ip), vehicle: Klucel (hydroxypropylcellulose) (HPC) 91 % of control

NC(=NCCCC(NCc1ccccc1)C(=O)O)N[N+](=O)[O-] (centres undefined)
inactive: dose: 75.0 mg/kg/injection, schedule: Q01DX009 (ip), vehicle: other 107 % of control | [8] 100 % of control | dose: 150.0 mg/kg/injection, schedule: Q01DX009 (ip), vehicle: other 111 % of control | [9] 102 % of control | dose: 300.0 mg/kg/injection, schedule: Q01DX009 (ip), vehicle: other 107 % of control | [10] 104 % of control | dose: 600.0 mg/kg/injection, schedule: Q01DX009 (ip), vehicle: other 105 % of control

Cc1cccc(CC(O)(CC(O)(c2ccccc2)c2ccccc2)c2ccccc2)c1 (centres undefined)
inactive: dose: 100.0 mg/kg/injection, schedule: Q04DX003 (ip), vehicle: acetone 96 % of control | dose: 200.0 mg/kg/injection, schedule: Q04DX003 (ip), vehicle: acetone 98 % of control | dose: 400.0 mg/kg/injection, schedule: Q04DX003 (ip), vehicle: acetone 97 % of control

Nn1c(-c2ccccc2)c[n+]2ccccc12
inactive: dose: 75.0 mg/kg/injection, schedule: Q01DX001 (ip), vehicle: other 101 % of control | dose: 150.0 mg/kg/injection, schedule: Q01DX001 (ip), vehicle: other 97 % of control | dose: 300.0 mg/kg/injection, schedule: Q01DX001 (ip), vehicle: other 92 % of control

O=C(CCCCCCCCC(=O)OCc1ccccc1)OCc1ccccc1
inactive: dose: 100.0 mg/kg/injection, schedule: Q04DX002 (ip), vehicle: saline 96 % of control | dose: 200.0 mg/kg/injection, schedule: Q04DX002 (ip), vehicle: saline 88 % of control | dose: 400.0 mg/kg/injection, schedule: Q04DX002 (ip), vehicle: saline 100 % of control

O=S(=O)(Nc1ccccc1Cl)c1ccccc1
inactive: dose: 100.0 mg/kg/injection, schedule: Q01DX009 (ip), vehicle: gum acacia 100 % of control | dose: 100.0 mg/kg/injection, schedule: Q04DX003 (ip), vehicle: gum acacia 93 % of control | dose: 200.0 mg/kg/injection, schedule: Q01DX009 (ip), vehicle: gum acacia 98 % of control | dose: 200.0 mg/kg/injection, schedule: Q04DX003 (ip), vehicle: gum acacia 95 % of control | dose: 400.0 mg/kg/injection, schedule: Q01DX009 (ip), vehicle: gum acacia 94 % of control | dose: 400.0 mg/kg/injection, schedule: Q04DX003 (ip), vehicle: gum acacia 95 % of control

N#CC1(C(N)=O)OC1c1ccccc1Cl (centres undefined)
inactive: [5] 97 % of control | [7] 98 % of control

CCCCCCOC(CN(C)C)C(Cl)(Cl)Cl (centres undefined)
inactive: dose: 100.0 mg/kg/injection, schedule: Q01DX009 (ip), vehicle: saline with Tween-80 101 % of control | [1] 93 % of control | dose: 200.0 mg/kg/injection, schedule: Q01DX009 (ip), vehicle: saline with Tween-80 98 % of control | [2] 95 % of control | [3] 98 % of control
